pEC50: −log10 of the molar value. Where a name gives a salt, the structure may show the parent alone.
What follows are molecules tested on rat pituitary cells (assay: growth hormone secretion in rat pituitary cell cultures (GH release, RIA)). Details: 0.25 h; GH release from cultured rat anterior pituitary cells, 15 min incubation at 37° C., rat GH measured by double antibody RIA; read-out: ED50 (the source's name).
Assay type: cell-based
Protocol: The bioassay employed for the determination of growth hormone secretion in rat pituitary cell cultures has been previously described--Cheng, K.; Chan, W. W.-S; Barreto, A.; Convey, E. M.; Smith, R. G. Endocrinology 124: 2791-2798 (1989)--and is summarized here: The Wistar male rats (150-200 grams) were obtained from Charles River Laboratories (Wilmington, Mass). Rats were maintained at a constant temperature (25° C.) on a 14-hr light, 10-hr dark cycle. Rat chow and water were available ad libitum. The animals were sacrificed by decapitation and anterior lobes of the pituitary quickly removed. Rat pituitary cells were isolated from pituitaries by enzymatic digestion with 0.2% collagenase and 0.2% hyaluronidase in Hank's Balanced Salt Solution. For culture, the cells were suspended in culture medium and adjusted to 1.5×10^5 cells/ml, and 1.0 ml of this suspension was placed in each well of a 24-well tray (Costar, Cambridge, Mass.). Cells were maintained in a humidified 5% CO2 -95% air atmosphere at 37° C. for 3 to 4 days. The culture medium consisted of DMEM containing 0.37% NaHCO3, 10% horse serum, 2.5% fetal bovine serum, 1% non-essential amino acids, 1% glutamine, 1% nystatin, and 0.1% gentamycin. On the day of an experiment, cells were washed twice 11/2 hrs prior to and once more immediately before the start of the experiment with the above culture medium containing 25 mM HEPES, pH 7.4. GH release was initiated by adding 1 ml of fresh medium containing test agents to each well in quadruplicate. Incubation was carded out at 37° C. for 15 min. After incubation, medium was removed and centrifuged at 2,000×g for 15 min to remove any cellular material. The supernatant fluid was removed and assayed for GH content. Rat GH in culture medium was measured by a double antibody RIA procedure using materials obtained from Dr. A. F. Parlow (Harbor-UCLA medical Center, Torrance, Calif.) and expressed in terms of the standard rat GH RP-2. ED50 values for test compounds were computed by fitting a four-parameter logistic function to the dose-response curve. Least squares estimates of the four-parameter logistic function coefficients and their variances were derived using the iterative algorithm described by Bates and Watts.

Row | SMILES | pEC50
1 | CC(C)(N)CC(=O)N[C@H](Cc1c[nH]c2ccccc12)C(=O)NCc1ccc(-c2ccccc2NC(=O)NCCO)cc1 [Example 17, (R)-α-[(3-Amino-3-methyl-1-oxobutyl)amino]-N-[[2'-[[(2-hydroxyethylamino)carbonyl]amino][1,1'-biphenyl]-4-yl]-methyl]-1H-indole-3-propanamide, trifluoroacetate] | < 6.30
2 | CC(C)(N)CC(=O)NCC(=O)NCc1ccc(-c2ccccc2-c2nnn[nH]2)cc1 [Example 5, 2-[(3-Amino-3-methyl-1-oxobutyl)amino]-N-[[2'-(1H-tetrazol-5-yl)[1,1'-biphenyl]-4-yl]methyl]acetamide, trifluoroacetate] | < 6.30
3 | CC(C)(N)CC(=O)N[C@H](Cc1ccccc1)C(=O)NCc1ccc(-c2ccccc2-c2nnn[nH]2)cc1 [Example 2, (R)-α-[(3-Amino-3-methyl-1-oxobutyl)amino]-N-[[2'-(1H-tetrazol-5-yl)[1,1'-biphenyl]-4-yl]methyl]benzene-propanamide, trifluoroacetate] | > 6.30

Same assay, conditions: GH release from cultured rat anterior pituitary cells, 15 min incubation at 37° C., rat GH measured by double antibody RIA; read-out: ED50 (the source's name)

Row | SMILES | EC50 [nM]
4 | COc1ccc(N(Cc2ccc(-c3ccccc3-c3nnn[nH]3)cc2)C(=O)[C@@H](CCc2ccccc2)NC(=O)C(C)(C)N)cc1.O=C(O)C(F)(F)F [Example 29, (R)-α-[(2-Amino-2-methyl-1-oxypropyl)amino]-N-(4-methoxyphenyl)-N-[[2'-(1H-tetrazol-5-yl)-[1,1'-biphenyl]-4-yl]methyl]benzenebutanamide, trifluoroacetate] | > 500
5 | CC(C)(N)C(=O)N[C@H](CCc1ccccc1)C(=O)N(Cc1ccc(-c2ccccc2-c2nnn[nH]2)cc1)c1ccc(O)cc1.O=C(O)C(F)(F)F [Example 31, (R)-α-[(2-Amino-2-methyl-1-oxypropyl)amino]-N-(4-hydroxyphenyl)-N-[[2'-(1H-tetrazol-5-yl)-[1,1'-biphenyl]-4-yl]methyl]benzene-butanamide, trifluoroacetate] | > 500
6 | CCCN(Cc1ccc(-c2ccccc2-c2nnn[nH]2)cc1)C(=O)[C@@H](CCc1ccccc1)NC(=O)C(C)(C)N.O=C(O)C(F)(F)F [Example 22, (R)-α-[(2-Amino-2-methyl-1-oxypropyl)amino]-N-[[2'-(1H-tetrazol-5-yl)-[1,1'-biphenyl]-4-yl]methyl]-N-(propyl)benzenebutanamide, trifluoroacetate] | < 500
7 | CN(Cc1ccc(-c2ccccc2C#N)cc1)C(=O)[C@@H](CCc1ccccc1)NC(=O)C(C)(C)N.O=C(O)C(F)(F)F [Example 7b, (R)-α-[(2-amino-2-methyl-1-oxypropyl)amino]-N-[[2'-cyano-[1,1'-biphenyl]-4-yl]methyl]-N-methyl-benzenebutanamide trifluoroacetate] | > 500
8 | CCN(Cc1ccc(-c2ccccc2-c2nnn[nH]2)cc1)C(=O)[C@@H](CCc1ccccc1)NC(=O)CC(C)(C)N.O=C(O)C(F)(F)F [Example 19, (R)-α-[(3-Amino-3-methyl-1-oxybutyl)amino]-N-ethyl-N-[[2'-(1H-tetrazol-5-yl)-[1,1'-biphenyl]-4-yl]methyl]benzenebutanamide, trifluoroacetate] | > 500
9 | CNC(=O)Nc1ccccc1-c1ccc(N(C)C(=O)[C@@H](CCc2ccccc2)NC(=O)C(C)(C)N)cc1.O=C(O)C(F)(F)F [Example 33] | > 500
10 | CCN(Cc1ccc(-c2ccccc2CNC(=O)NC)cc1)C(=O)[C@@H](CCc1ccccc1)NC(=O)CC(C)(C)N.O=C(O)C(F)(F)F [Example 21] | < 500
11 | CCN(Cc1ccc(-c2ccccc2CNC(=O)NC)cc1)C(=O)[C@@H](CCc1ccccc1)NC(=O)C(C)(C)N.O=C(O)C(F)(F)F [Example 20, (R)-α-[(2-Amino-2-methyl-1-oxypropyl)amino]-N-ethyl-N-[[(2'-[((methylamino)carbonyl)aminomethyl])-[1,1'-biphenyl]-4-yl]methyl]benzenebutanamide,trifluoroacetate] | < 500
12 | CNC(=O)NCc1ccccc1-c1ccc(CN(C)C(=O)[C@@H](CCc2ccccc2)NC(=O)CCC(C)(C)N)cc1.O=C(O)C(F)(F)F [Example 12] | < 500
13 | CN(Cc1ccc(-c2ccccc2-c2nnn[nH]2)cc1)C(=O)[C@@H](CCc1ccccc1)NC(=O)CC(C)(C)N.O=C(O)C(F)(F)F [Example 8a, (R)-α-[(3-Amino-3-methyl-1-oxybutyl)amino]-N-methyl-N-[[2'-(1H-tetrazol-5-yl)-[1,1'-biphenyl]-4-yl]methyl]benzenebutanamide, trifluoroacetate] | > 500
14 | CC(C)(N)C(=O)N[C@H](COCc1ccccc1)C(=O)NCc1ccc(-c2ccccc2NC(=O)NCCO)cc1.O=C(O)C(F)(F)F [Example 25, (R)-α-[(2-Amino-2-methyl-1-oxopropyl)amino]-N-[[(2'-[(2-hydroxyethylamino)carbonyl]amino][1,1'-biphenyl]-4-yl]-methyl]-3-[(phenylmethyl)oxy]propanamide, trifluoracetate] | > 500
